# Source: paper PMC3871618 (PLoS ONE, 2013)
# Read-outs that look alike come from different tables or passages of the source.
# How the values were obtained:
# ABCB1 transporter [1] = target: T1, ABCB1 transporter (Homo sapiens, UniProt P08183); assay: HOE (Hoechst 33342) accumulation in MDCKII-ABCB1 cells; assay type: cell-based; details: 8 µM HOE, end-point fluorescence at 30 min, 50% of each compound's own maximum inhibitory activity, read-out: IC50, inhibition of ABCB1-mediated efflux of HOE
# T1 construct: expressed in transfected cells; host or cells: MDCKII (canine kidney) cells transduced with human ABCB1, from Prof; Piet Borst and Dr. Alfred Schinkel (The Netherlands Cancer Institute)
# T1 sequence (P08183 whole entry): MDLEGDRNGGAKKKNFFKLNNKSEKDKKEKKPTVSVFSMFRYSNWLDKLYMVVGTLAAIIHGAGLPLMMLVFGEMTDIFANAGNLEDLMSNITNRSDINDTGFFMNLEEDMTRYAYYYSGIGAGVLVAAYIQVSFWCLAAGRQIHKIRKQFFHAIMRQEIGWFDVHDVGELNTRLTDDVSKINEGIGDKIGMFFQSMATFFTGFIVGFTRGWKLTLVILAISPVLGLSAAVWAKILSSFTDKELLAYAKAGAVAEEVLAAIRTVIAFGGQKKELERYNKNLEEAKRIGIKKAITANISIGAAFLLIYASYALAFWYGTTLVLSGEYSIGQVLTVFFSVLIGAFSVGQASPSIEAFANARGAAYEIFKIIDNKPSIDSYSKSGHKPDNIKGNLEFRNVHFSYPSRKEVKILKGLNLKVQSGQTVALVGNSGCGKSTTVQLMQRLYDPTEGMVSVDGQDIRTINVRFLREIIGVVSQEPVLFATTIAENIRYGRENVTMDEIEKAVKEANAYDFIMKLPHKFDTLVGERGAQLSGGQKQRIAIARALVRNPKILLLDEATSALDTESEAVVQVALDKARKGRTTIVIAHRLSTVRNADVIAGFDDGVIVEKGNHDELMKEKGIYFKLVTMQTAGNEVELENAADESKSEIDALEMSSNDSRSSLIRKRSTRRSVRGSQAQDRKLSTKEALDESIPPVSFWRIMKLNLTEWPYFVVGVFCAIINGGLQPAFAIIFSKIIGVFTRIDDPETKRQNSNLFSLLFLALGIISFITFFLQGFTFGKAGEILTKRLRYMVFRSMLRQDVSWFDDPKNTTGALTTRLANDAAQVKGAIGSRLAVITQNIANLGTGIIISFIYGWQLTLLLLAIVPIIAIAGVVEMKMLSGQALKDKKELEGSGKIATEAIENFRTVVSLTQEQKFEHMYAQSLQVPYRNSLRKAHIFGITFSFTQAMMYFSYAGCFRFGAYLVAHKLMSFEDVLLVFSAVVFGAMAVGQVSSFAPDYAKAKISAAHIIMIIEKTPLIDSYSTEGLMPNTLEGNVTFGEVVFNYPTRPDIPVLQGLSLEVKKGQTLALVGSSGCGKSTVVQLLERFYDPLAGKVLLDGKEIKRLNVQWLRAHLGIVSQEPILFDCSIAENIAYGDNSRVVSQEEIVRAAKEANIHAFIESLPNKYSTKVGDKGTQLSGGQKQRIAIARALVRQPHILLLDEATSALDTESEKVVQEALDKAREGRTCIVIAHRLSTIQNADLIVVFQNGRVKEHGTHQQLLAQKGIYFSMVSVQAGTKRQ
# Procedure: (§1) To investigate the inhibitory activity of CDKi on ABCB1, the intracellular accumulation of HOE, a fluorescent ABCB1 substrate, was examined in both MDCKII-ABCB1 and MDCKII parent cell lines in the presence and absence of the tested compounds. The reduction in fluorescence intensity in ABCB1-transduced cells indicates the efflux activity of the ABCB1 transporter, its inhibition increases HOE accumulation and thus the intracellular fluorescence.
# (§2) The assay was conducted as previously described and optimized for application in ABCB1-expressing cells. Briefly, MDCKII-ABCB1 and MDCKII parent cells were seeded at 5×10^4 cells per well on a 96-well culture plate and used for accumulation experiments after 24 h cultivation. The medium was removed and cells were washed twice with prewarmed phosphate buffered saline (PBS) at pH 7.4.
# ABCB1 transporter [2] = target: T1, ABCB1 transporter; assay: DNR accumulation in MDCKII-ABCB1 cells (flow cytometry), normalized to parental MDCKII; assay type: cell-based; details: 20 µM CDKi, 2 µM DNR
# Procedure: Briefly, MDCKII-ABCB1 and MDCKII parent cells were seeded at 1.5×10^5 cells per well on a 12-well plate 24 h before the experiment. The medium was removed and the cells were washed with prewarmed PBS. The cells were then preincubated in Opti-MEM, with or without CDKi or LY at 37°C in 5% CO2 for 30 min. […] Accumulation was stopped by cooling the samples on ice, removing the medium and washing twice with ice-cold PBS. The cells were then detached from the plates with 10× trypsin-EDTA, resuspended in PBS with 2% FBS and transferred to Eppendorf tubes, which were placed on ice until analysis. […] The median fluorescence (MF) intensity of 10,000 measured cells was used to compare the fluorescence resulting from each of the treatments. […] The MF intensity of untreated cells was subtracted from fluorescence values obtained for all the measured samples.
# To quantify the inhibitory effect of each tested compound on the ABCB1 transporter in the MDCKII-ABCB1 cell line, the ratio between the MF intensity with or without inhibitor was calculated and normalized to the effect in the parental MDCKII cell line according to the following equation [30]: [drawing 1]
# MDCKII parent cells = assay: XTT cytotoxicity, CDKi + DNR combination (Chou-Talalay); assay type: cell-based; details: 72 h; for Fa above which combination with DNR is synergistic: constant ratio
# Procedure: (§3) 1×10^4 MDCKII-ABCB1, 1×10^4 MDCKII parent, 2×10^4 HCT-8, or 2×10^4 HepG2 cells were grown in 96-well culture plates and incubated for 24 h. Individual CDKi diluted with growth medium were added to the exponentially growing cells and the resulting mixtures were incubated for 72 h at 37°C, 5% CO2. Cytotoxicity was then assessed using the XTT assay as follows: cells were incubated with 0.167 mg/mL XTT and 4 µM PMS in Opti-MEM for 2 h. The absorbance of the soluble formazan released was measured at 470 nm on a microplate reader (Tecan, Männedorf, Switzerland).
# (§4) The combination index (CI) method of Chou-Talalay, based on the median-effect equation, was used to calculate combined drug effects. This approach offers quantitative definitions for additive, synergistic and antagonistic effects (CI values of 0.9–1.1, <0.9, and >1.1, respectively). Combination experiments were performed in a constant-ratio experimental design as recommended for the most efficient data analysis, and the generated data were used to quantify dose-reduction indices (DRI) for pairs of the tested drugs. DRI represents the fold-change of a focal effect when individual agents are used simultaneously relative to their separate effects, and their activity is synergistic if DRI > 1. […] The data acquired from these drug combination experiments were analyzed using CompuSyn ver. 3.0.1 software (ComboSyn Inc., Paramus, NJ, USA).
# MDCKII-ABCB1 cells = assay: as above; assay type: cell-based
# Procedure: as §3, §4
# HCT-8 cells = assay: as above; details: HCT-8, 72 h; for Fa at which combination with DNR shows synergistic cytotoxic effects: constant ratio; for DRI at Fa 0.5, drug II (CDKi) / DRI at Fa 0.75, drug II (CDKi) / DRI at Fa 0.9, drug II (CDKi): CDKi combined with DNR at constant ratio
# Procedure: as §3, §4
# HepG2 cells = assay: as above; assay type: cell-based, human; details: HepG2, 72 h; for Fa values for synergism of combination with DNR: constant ratio; for DRI at Fa 0.75, drug II (CDKi) / DRI at Fa 0.9, drug II (CDKi): CDKi combined with DNR at constant ratio
# Procedure: as §3, §4
# ABCG2 = tested on: ABCG2; set-up: method as in PMID 22173067, PMID 24116053; details: in vitro and in situ; cited from earlier work
# ABCB1 [3] = target: T2, ABCB1 (Homo sapiens, UniProt P08183); assay: ABCB1-ATPase inhibition assay (verapamil-stimulated), Sf9 membranes; assay type: biochemical; set-up: purchased Solvo Biotechnology (Szeged, Hungary); host or cells: Sf9 insect cell membranes; details: 140 nM to 300 µM
# T2 sequence (P08183 whole entry): as above
# Procedure: (§5) The drug efflux function of ABCB1 is linked to hydrolysis of ATP by ATPase, which is stimulated in the presence of ABCB1 substrates. In the activation assay, transported substrates can stimulate baseline vanadate-sensitive ATPase activity, whereas in the inhibition assay, which is carried out in the presence of a known activator of the transporter, inhibitors may reduce the maximal vanadate-sensitive ATPase activity. ATPase activity was measured by assessing the amount of phosphate liberated from ATP by the ABCB1 transporter using the […] ATPase kit for ABCB1 according to the manufacturer’s instructions. For this purpose, Sf9 cell membranes (4 µg protein per well) were mixed with each of the test compounds (singly) in solutions with concentrations ranging from 140 nM to 300 µM, then incubated at 37°C for 10 min in the presence or absence of 1.2 mM sodium orthovanadate. The reaction was started by adding 10 mM ATP solution (magnesium salt) to the reaction mixture, stopped 10 min later, and the absorbance at 590 nm was measured after a further 30 min incubation (GeniosPlus apparatus; Tecan, Männedorf, Switzerland). The ATPase activity in each sample was determined as the difference in liberated amounts of phosphate measured in the presence and absence of 1.2 mM sodium orthovanadate. Phosphate standards were prepared in each plate and verapamil served as a positive control for ABCB1 stimulation. The results are expressed as vanadate-sensitive ATPase activities.
# ABCB1 [4] = target: T2, ABCB1; assay: ABCB1-ATPase activation assay (baseline), Sf9 membranes; assay type: biochemical; set-up: purchased Solvo Biotechnology (Szeged, Hungary); host or cells: Sf9 insect cell membranes; details: for Effect on baseline vanadate-sensitive ATPase activity of ABCB1: activation assay, 140 nM to 300 µM
# Procedure: as §5
# ABCB1 [5] = target: T2, ABCB1; assay: HOE (Hoechst 33342) accumulation in MDCKII-ABCB1 cells; assay type: cell-based; set-up: expressed in transfected cells; host or cells: MDCKII (canine kidney) cells transduced with human ABCB1, from Prof; Piet Borst and Dr. Alfred Schinkel (The Netherlands Cancer Institute); details: human, probe Hoechst 33342 (HOE), 8 µM, CDKi applied at their respective IC50 concentrations, % as strongly as LY, read-out: Inhibition of HOE efflux relative to LY
# Procedure: as §1, §2
# [6] = CDKi combined with DNR at constant ratio
# [7] = MDCKII-ABCB1, 72 h, CDKi combined with DNR at constant ratio
SMILES,IC50 (ABCB1 transporter [1]) [µM],ABCB1 inhibition (DNR efflux) (ABCB1 transporter [2]),"DRI at Fa 0.75, drug II (CDKi) (MDCKII parent cells; [6])","DRI at Fa 0.9, drug II (CDKi) (MDCKII parent cells; [6])",Fa above which combination with DNR is synergistic (MDCKII parent cells),Fa at which combination with DNR shows synergistic cytotoxic effects (HCT-8 cells),"DRI at Fa 0.5, drug II (CDKi) (HCT-8 cells)","DRI at Fa 0.75, drug II (CDKi) (HCT-8 cells)","DRI at Fa 0.9, drug II (CDKi) (HCT-8 cells)",Fa values for synergism of combination with DNR (HepG2 cells),"DRI at Fa 0.75, drug II (CDKi) (HepG2 cells)","DRI at Fa 0.9, drug II (CDKi) (HepG2 cells)",Effect on verapamil-stimulated vanadate-sensitive ATPase activity of ABCB1 (ABCB1 [3]),Effect on baseline vanadate-sensitive ATPase activity of ABCB1 (ABCB1 [4]),inhibition at 30 min (ABCB1 [5]) [%],other results
CC[C@H](CO)Nc1nc(NCc2ccccc2O)c2ncn(C(C)C)c2n1 [olomoucine II],6.4,significant (P<0.05) ABCB1 inhibition,2.63±0.05,2.75±0.02,exceeded 0.4,> 0.1,3.04±0.13,2.98±0.06,2.92±0.05,0.75,2.08±0.03,2.38±0.04,considerably and dose-dependently reduced,increased the baseline vanadate-sensitive ATPase activity,48,"DRI at Fa 0.5, drug II (CDKi) (MDCKII parent cells; [6]): 2.51±0.08; Combination index (CI) category, combination with DNR (MDCKII-ABCB1 cells; MDCKII-ABCB1, 72 h, constant ratio): synergistic category of drug combination effects across almost the whole fraction of cells affected (Fa) range; DRI at Fa 0.5, drug II (CDKi) (MDCKII-ABCB1 cells; [7]): 2.83±0.27; DRI at Fa 0.75, drug II (CDKi) (MDCKII-ABCB1 cells; [7]): 2.84±0.19; DRI at Fa 0.9, drug II (CDKi) (MDCKII-ABCB1 cells; [7]): 2.86±0.10; ABCG2 inhibition (ABCG2): can inhibit ABCG2 in vitro and in situ; ABCB1 substrate classification (ABCB1 [4]; from ATPase activity in Sf9 membranes overexpressing human ABCB1): ABCB1 substrate and inhibitor"
CC[C@H](CO)Nc1nc(NCc2ccccc2)c2ncn(C(C)C)c2n1 [roscovitine],10.3,significant (P<0.05) ABCB1 inhibition,2.29±0.05,2.37±0.06,> 0.45,> 0.3,2.49±0.02,2.29±0.03,2.11±0.06,0.65,2.51±0.02,2.56±0.02,considerably and dose-dependently reduced,increased the baseline vanadate-sensitive ATPase activity,57,"DRI at Fa 0.75, drug II (CDKi) (MDCKII-ABCB1 cells): 3.08±0.02; DRI at Fa 0.9, drug II (CDKi) (MDCKII-ABCB1 cells): 2.96±0.03"
